Values quoted from earlier work as cited in US20110155130A1, “Dronabinol Treatment for Migraines” (Unimed Pharmaceuticals, Inc., priority 2005, published 2011).

Settings: 5 mg to 20 mg oral doses of THC; randomized controlled clinical trials

CCCCCc1cc(O)c2c(c1)OC(C)(C)[C@@H]1CCC(C)=C[C@@H]21 [THC, (6a R-trans)-6a,7,8,10a-tetrahydro-6,6,9-trimethyl-3-pentyl-6H-dibenzo[b,d]pyran-1-ol]
effectiveness compared with codeine: as effective as 50 mg to 120 mg of codeine
